# Legend:
# Assay in all cases: field test of gametocidal activity (sterilisation of anthers)
# Type in all cases: in vivo
# [1] = system: diploidem Roggen Sorte Voskhod 2; conditions: V. Periode, 1%ige wäßrige Emulsion, 10 kg/ha; for Prozentsatz des Ansetzens der Körner bei freier Bestäubung: control = 100
# Text: (§1) Die gametozide Aktivität der erfindungsgemäßen Sterilisationsmittel war in Feldversuch in verschiedenen bodenklimatischen Zonen mit Teilstücken von 10 m^2 Größe in drei-- bis viermaliger Wiederholung nachgewiesen. Jedes Sterilisationsmittel wurde mindestens 5 Jahre lang geprüft.
# (§2) Die Entwicklung der Perioden der Organogenese wird zytologisch überwacht. Die Behandlung von Pflanzen mit dem Sterilisationsmittel erfolgt am Anfang der fünften Periode der Organogenese nach Kupermann.
# (§3) Mit dem Ahrenschieben verwirklicht man die Isolierung von Hauptähren und anderen Stockwerken in Pergamentbeuteln. Bei Weizen und Tritikale werden Einzelisolatoren verwendet. Bei Roggen schließt man je 1 Ähre von 5 bis 7 verschiedenen nebeneinander befindlichen Pflanzen in einen gemeinsamen Isolator ein. Bei Hirse wird jede Rispe getrennt isoliert. Der Sterilitätsprozentsatz (X) für Weizen, Roggen, Tritikale und Hirse wird nach der Formel [formula]
# (§4) Samen von unbehandelten Kontrollpflanzen ermittelt.
# (§5) Die Kornzahl in nicht isolierten Ähren von Kontrollpflanzen wird bedingt für 100% Ansetzen bei freier Bestäubung angenommen.
# (§6) Um zuverlässige Angaben zu erhalten, verwendet man 20 bis 25 Isolatoren jeder Wiederholung für Weizen und Tritikale, 10 bis 15 Isolatoren jeder Wiederholung für Roggen und Hirse.
# Pflanzen von diploidem Roggen Sorte Voskhod 2 werden in der V. Periode der Organogenese (nach Kupermann) mit einer l%igen wäßrigen Emulsion von Phthalsäurediäthylester, Phthalsaurediisobutylester, Kaliumsalz der 2-Methyl-3-zyklohexen- karbonsäure, Ammoniumsalz der 2-Methyl-3-zyklohexenkarbon- säure, 2-Methyl-3-zyklohexenkarbonsäuremethylester, Phthalsaurediallylester behandelt.
# Die Emulsion enthält 0,01 Masse% Dodezylsulfat und 0,1 Masse% C12-C14-Kalziumalkylbenzolsulfonat. Der Verbrauch an Präparat beträgt 10 kg/ha, Als Kontrolle dienen Pflanzen, behandelt mit einem Verdünner ohne Sterilisationsmittel.
# [2] = system: diploidem Roggen Sorte Kharkovskaya 55; conditions: V. und VI. Periode, 1%ige wäßrige Emulsion, 6 kp/ha; for Prozentsatz des Ansetzens der Körner bei freier Bestäubung: control = 100
# Text: as §1, §2, §3, §4, §5, §6
# Pflanzen von diploidem Roggen Sorte Kharkovskaya 55 werden in der V. und VI. Periode der Organogenese (nach Kupermann) mit einer 1%igen wäßrigen Emulsion von Phthalsäuredibutylester, Phthalsäurediisobutylester, Phthalsäurediallylester, Phthalsäuredihexylester, 2-Methyl-3-zyklohexen- karbonsäuremethylester, Natriumsalz der 2-Methyl-3-zyklohex- enkarbonsäure behandelt. Die Emulsion enthält 0,01 Masse% Dimethylformamid und 0,1 Masse% C12C14-Kalziumalkylbenzolsulfonat.
# Der Verbrauch an Präparat beträgt 6 kp/ha. Als Kontrolle dienen Pflanzen, benandelt mit einem Verdünner ohne Sterilisationsmittel.
# [3] = system: Hirse Sorte K-9693 Kormovoe I; conditions: V. Periode, 1%ige wäßrige Emulsion, 8 kg/ha; for Prozentsatz des Ansetzens der Körner bei freier Bestäubung: control = 100
# Text: as §1, §2, §3, §4, §5, §6
# Pflanzen der Hirse Sorte K-9693 Kormovoe I werden in der V. Periode der Organogenese (nach Kupermann) mit einer 1%igen wäßrigen Emulsion von Ammoniumsalz der 2-Methyl-3-zyklo- nexenkarbonsäure, Phthalsäuredipropylester, Phthalsäuredibutylester, Phthalsäurediisobutylester, 2-Methyl-3-zyklo- hexenkarbonsäuremethylester, Phthalsäuredihexylester behandelt. Die Emulsion enthält 0,01 Masse% Dodezylsulfat und 0,1 Masse% C12-C14-Kalziumalkylbenzolsulfonat. Der Verbrauch an Präparat beträgt 8 kg/ha. Als Kontrolle dienen Pflanzen, behandelt mit einem Verdünner ohne Sterilisationsmittel. Die Prüfergebnisse sind in der Tabelle 18 angeführt. […] Periode der Organogenese erhalten.
# [4] = system: Tritikale der Sorte PRAG-109; conditions: V. Periode, 1%ige wäßrige Emulsion, 10 kg/ha; for Prozentsatz des Ansetzens der Körner bei freier Bestäubung: control = 100
# Text: as §1, §2, §3, §4, §5, §6
# Pflanzen Tritikale der Sorte PRAG-109 werden in der V. Periode der Organogenese (nach Kupermann) mit einer 1%igen wäßrigen Emulsion von Phthalsäuredibutylester, Phthalsäurediäthylester, Phthalsäuredihexylester, Phthalsäurediisobutylester, Kaliumsalz der 2-Methyl-3-zyklohexenkarbon- säure, 2-Methyl-3-zyklohexenkarbonsäuremethylester behandelt. Die Emulsion enthält 0,01 Masse% Dimethylsulfoxid und 0,1 Masse% C12C14- Kalziumalkylbenzolsulfonat. Der Verbrauch an Präparat beträgt 10 kg/ha. Als Kontrolle dienen Pflanzen, behandelt mit einem Verdünner ohne Sterilisationsmittel. […]
# In allen Fällen dienen als Kontrolle Pflanzen, behandelt mit einem Verdünner ohne Sterilisationsmittel. Die Prüfergebnisse sind in der Tabelle 20 angeführt. […] Periode der Organogenese erhalten.
structure (smiles),measurement,setting,value
"CCOC(=O)c1ccccc1C(=O)OCC [Beispiel 76, Phthalsäurediäthylester]",Kornzahl der Ähre bei freier Bestäubung,[1],"53,4"
same,Kornzahl der Ähre im Isolator,[1],"0,2"
same,Prozentsatz der Sterilität,[1],"99,6%"
same,Prozentsatz des Ansetzens der Körner bei freier Bestäubung,[1],"97,8%"
"CC1C=CCCC1C(=O)O (stereo not shown) [Beispiel 73, Natriumsalz der 2-Methyl-3-zyklohex-enkarbonsäure]",Kornzahl der Ähre bei freier Bestäubung,[2],"50,1"
same,Kornzahl der Ähre im Isolator,[2],"0,0"
same,Prozentsatz der Sterilität,[2],"100,0%"
same,Prozentsatz des Ansetzens der Körner bei freier Bestäubung,[2],"95,6%"
"CCCCOC(=O)c1ccccc1C(=O)OCCCC [Beispiel 68, Phthalsäuredibutylester]",Kornzahl der Ähre bei freier Bestäubung,[2],"48,6"
same,Kornzahl der Ähre im Isolator,[2],"0,0"
same,Prozentsatz der Sterilität,[2],"100,0%"
same,Prozentsatz des Ansetzens der Körner bei freier Bestäubung,[2],"92,7%"
"CCCOC(=O)c1ccccc1C(=O)OCCC [Beispiel 98, Phthalsäuredipropylester]",Kornzahl der Rispe bei freier Bestäubung,[3],"130,7"
same,Kornzahl der Rispe im Isolator,[3],"0,0"
same,Prozentsatz der Sterilität,[3],"100,0%"
same,Prozentsatz des Ansetzens der Körner bei freier Bestäubung,[3],"89,1%"
"C=CCOC(=O)c1ccccc1C(=O)OCC=C [Beispiel 70, Phthalsäurediallylester]",Kornzahl der Ähre bei freier Bestäubung,[2],"51,2"
same,Kornzahl der Ähre im Isolator,[2],"0,1"
same,Prozentsatz der Sterilität,[2],"99,8%"
same,Prozentsatz des Ansetzens der Körner bei freier Bestäubung,[2],"97,7%"
"CC(C)COC(=O)c1ccccc1C(=O)OCC(C)C [Beispiel 100, Phthalsäurediisobutylester]",Kornzahl der Rispe bei freier Bestäubung,[3],"110,4"
same,Kornzahl der Rispe im Isolator,[3],"0,0"
same,Prozentsatz der Sterilität,[3],"100,0%"
same,Prozentsatz des Ansetzens der Körner bei freier Bestäubung,[3],"75,3%"
"COC(=O)C1CCC=CC1C (stereo not shown) [Beispiel 80, 2-Methyl-3-zyklohexenkarbonsäuremethylester]",Kornzahl der Ähre bei freier Bestäubung,[1],"50,2"
same,Kornzahl der Ähre im Isolator,[1],"0,0"
same,Prozentsatz der Sterilität,[1],"100,0%"
same,Prozentsatz des Ansetzens der Körner bei freier Bestäubung,[1],"91,9%"
"COC(=O)C1CCC=CC1C (stereo not shown) [Beispiel 101, 2-Methyl-3-zyklo-hexenkarbonsäuremethylester]",Kornzahl der Rispe bei freier Bestäubung,[3],"127,8"
same,Kornzahl der Rispe im Isolator,[3],"0,0"
same,Prozentsatz der Sterilität,[3],"100,0%"
same,Prozentsatz des Ansetzens der Körner bei freier Bestäubung,[3],"87,1%"
"C=CCOC(=O)c1ccccc1C(=O)OCC=C [Beispiel 81, Phthalsaurediallylester]",Kornzahl der Ähre bei freier Bestäubung,[1],"53,5"
same,Kornzahl der Ähre im Isolator,[1],"0,8"
same,Prozentsatz der Sterilität,[1],"98,4%"
same,Prozentsatz des Ansetzens der Körner bei freier Bestäubung,[1],"97,9%"
"CC1C=CCCC1C(=O)O (stereo not shown) [Beispiel 79, Ammoniumsalz der 2-Methyl-3-zyklohexenkarbon-säure]",Kornzahl der Ähre bei freier Bestäubung,[1],"51,7"
same,Kornzahl der Ähre im Isolator,[1],"0,0"
same,Prozentsatz der Sterilität,[1],"100,0%"
same,Prozentsatz des Ansetzens der Körner bei freier Bestäubung,[1],"95,0%"
"COC(=O)C1CCC=CC1C (stereo not shown) [Beispiel 72, 2-Methyl-3-zyklohexen-karbonsäuremethylester]",Kornzahl der Ähre bei freier Bestäubung,[2],"48,0"
same,Kornzahl der Ähre im Isolator,[2],"0,0"
same,Prozentsatz der Sterilität,[2],"100,0%"
same,Prozentsatz des Ansetzens der Körner bei freier Bestäubung,[2],"91,6%"
"CCCCCCOC(=O)c1ccccc1C(=O)OCCCCCC [Beispiel 102, Phthalsäuredihexylester]",Kornzahl der Rispe bei freier Bestäubung,[3],"136,6"
same,Kornzahl der Rispe im Isolator,[3],"0,0"
same,Prozentsatz der Sterilität,[3],"100,0%"
same,Prozentsatz des Ansetzens der Körner bei freier Bestäubung,[3],"93,1%"
"COC(=O)C1CCC=CC1C (stereo not shown) [Beispiel 42, 2-Methyl-3-zyklohexenkarbonsäuremethylester]",Kornzahl der Ähre bei freier Bestäubung,[4],"64,7"
same,Kornzahl der Ähre im Isolator,[4],"0,0"
same,Prozentsatz der Sterilität,[4],"100,0%"
same,Prozentsatz des Ansetzens der Körner bei freier Bestäubung,[4],"93,8%"
"CCCCCCOC(=O)c1ccccc1C(=O)OCCCCCC [Beispiel 39, Phthalsäuredihexylester]",Kornzahl der Ähre bei freier Bestäubung,[4],"61,7"
same,Kornzahl der Ähre im Isolator,[4],"3,0"
same,Prozentsatz der Sterilität,[4],"95,2%"
same,Prozentsatz des Ansetzens der Körner bei freier Bestäubung,[4],"89,4%"
"CCOC(=O)c1ccccc1C(=O)OCC [Beispiel 38, Phthalsäurediäthylester]",Kornzahl der Ähre bei freier Bestäubung,[4],"60,8"
same,Kornzahl der Ähre im Isolator,[4],"0,8"
same,Prozentsatz der Sterilität,[4],"98,7%"
same,Prozentsatz des Ansetzens der Körner bei freier Bestäubung,[4],"88,1%"
"CCCCOC(=O)c1ccccc1C(=O)OCCCC [Beispiel 37, Phthalsäuredibutylester]",Kornzahl der Ähre bei freier Bestäubung,[4],"62,1"
same,Kornzahl der Ähre im Isolator,[4],"0,1"
same,Prozentsatz der Sterilität,[4],"99,8%"
same,Prozentsatz des Ansetzens der Körner bei freier Bestäubung,[4],"90,0%"
"CCCCOC(=O)c1ccccc1C(=O)OCCCC [Beispiel 99, Phthalsäuredibutylester]",Kornzahl der Rispe bei freier Bestäubung,[3],"127,9"
same,Kornzahl der Rispe im Isolator,[3],"0,0"
same,Prozentsatz der Sterilität,[3],"100,0%"
same,Prozentsatz des Ansetzens der Körner bei freier Bestäubung,[3],"87,9%"
"CCCCCCOC(=O)c1ccccc1C(=O)OCCCCCC [Beispiel 71, Phthalsäuredihexylester]",Kornzahl der Ähre bei freier Bestäubung,[2],"49,7"
same,Kornzahl der Ähre im Isolator,[2],"0,0"
same,Prozentsatz der Sterilität,[2],"100,0%"
same,Prozentsatz des Ansetzens der Körner bei freier Bestäubung,[2],"94,8%"
"CC(C)COC(=O)c1ccccc1C(=O)OCC(C)C [Beispiel 69, Phthalsäurediisobutylester]",Kornzahl der Ähre bei freier Bestäubung,[2],"50,8"
same,Kornzahl der Ähre im Isolator,[2],"0,2"
same,Prozentsatz der Sterilität,[2],"99,6%"
same,Prozentsatz des Ansetzens der Körner bei freier Bestäubung,[2],"96,9%"
"CC(C)COC(=O)c1ccccc1C(=O)OCC(C)C [Beispiel 77, Phthalsaurediisobutylester]",Kornzahl der Ähre bei freier Bestäubung,[1],"52,8"
same,Kornzahl der Ähre im Isolator,[1],"0,0"
same,Prozentsatz der Sterilität,[1],"100,0%"
same,Prozentsatz des Ansetzens der Körner bei freier Bestäubung,[1],"96,7%"
"CC1C=CCCC1C(=O)O (stereo not shown) [Beispiel 78, Kaliumsalz der 2-Methyl-3-zyklohexen-karbonsäure]",Kornzahl der Ähre bei freier Bestäubung,[1],"52,2"
same,Kornzahl der Ähre im Isolator,[1],"0,1"
same,Prozentsatz der Sterilität,[1],"99,8%"
same,Prozentsatz des Ansetzens der Körner bei freier Bestäubung,[1],"95,6%"
"CC1C=CCCC1C(=O)O (stereo not shown) [Beispiel 41, Kaliumsalz der 2-Methyl-3-zyklohexenkarbon-säure]",Kornzahl der Ähre bei freier Bestäubung,[4],"65,1"
same,Kornzahl der Ähre im Isolator,[4],"0,1"
same,Prozentsatz der Sterilität,[4],"99,8%"
same,Prozentsatz des Ansetzens der Körner bei freier Bestäubung,[4],"94,3%"

# Reference: patent EP0364581A1, “METHOD OF STERILIZING PLANT POLLEN” (VSESOJUZNY NAUCHNO-ISSLEDOVATELSKY INST. SELSKOKHOZYAISTV. …, priority 1988, dated 1989)
